# Results from patent publication US20250161273A1, “PHARMACEUTICAL COMPOSITION COMPRISING DIPHENYLDIAZOLE DERIVATIVES AND METHODS OF USE” (MODAG GMBH, priority 2022, published 2025).
# How the values were obtained:
# [1] = rat formulation study, PK after single oral administration; format: in vivo; conditions: Sprague-Dawley, plasma, male rats, 10 mg/kg single oral, read-out: Tmax, all four formulations
# Description: A rat study was undertaken to assess the pharmacokinetics of anle138b in male Sprague Dawley rats (n=3/arm) following single oral administration of different formulations of anle138b, as follows, in Table 5.
# Male Sprague Dawley (SD) rats (n=3/formulation) sourced from Charles River Italia were kept for 5 days acclimatization. Feeding regimen was ad libitum except on the day of dosing when the food was supplied 4 hours post dosing, having been removed the evening beforehand. Animals were orally dosed with anle138b (10 mg/kg) formulated as above. An individual serial plasma profile was drawn from each animal over a period of 24 hours after dosing.
# The dose formulations were administered orally via gastric gavage (2 ml/kg); any remaining formulation after dosing was discarded.
# After oral administration, blood samples were collected from the tail vein of each rat at the time-points detailed: Pre dose, 0.5, 1, 2, 4, 6, 8 and 24 hours after dosing […]
# PK profiling was performed by non-compartmental analysis using Phoenix™ WinNonlin. […] The maximum observed peak plasma concentration (Cmax) and the time at which it was observed (Tmax) were determined by inspection of the observed data.
# The relative bioavailability ([…]) of anle138b between dose formulations was calculated by comparing systemic exposure (AUC0-t), and are reported rounded to at least 2 significant figures. […]
# [2] = tested on: oligomer accumulation; conditions: range of different mouse models; cited from earlier work
# [3] = tested on: monomer; conditions: cited from earlier work
# [4] = 28-day toxicity study in rats; format: in vivo
# Source text: Safe starting dose & exposure limit justification: This trial followed the recommendations of the EMA (European Medicines Agency) (EMEA/CHMP/SWP/28367/07 Rev. 1; 20 Jul. 2017) and the FDA (Food and Drug Administration) (Guidance for Industry: Estimating the Maximum Safe Starting Dose in Initial Clinical Trials for Therapeutics in Adult Healthy Volunteers. U.S. Department of Health and Human Services Food and Drug Administration Center for Drug Evaluation and Research (CDER) July 2005) for dose finding in a first-in-human study. The safe starting dose was set based on toxicity studies in animals. In a 28-day toxicity study in rats, the no-observed-adverse-effect-level (NOAEL) was determined to be 50 mg/kg/day (human equivalent dose of 8.1 mg/kg). The dose range of the current trial was designed to start at 50 mg. Escalation between doses was planned to be flexible depending on emerging results but not to exceed an increment of 2-fold.
# [5] = animal studies, cited from earlier work
smiles,measurement,setting,value
"Brc1cccc(-c2cc(-c3ccc4c(c3)OCO4)n[nH]2)c1 [anle138b, 3-(1,3-benzodioxol-5-yl)-5-(3-bromophenyl)-1H-pyrazole]",Tmax,[1],2 to 8 h
same,effect in mouse models in vivo (in words),[2],"strongly inhibited oligomer accumulation, neuronal degeneration, and disease progression"
same,binding to the monomer (in words),[3],does not bind to the monomer
same,no-observed-adverse-effect-level (NOAEL),[4]; 28-day toxicity study in rats,50 mg/kg/day
same,NOAEL at 28 days,"[4]; rat, in vivo",8.1 mg/kg
same,oral bioavailability (in words),[5],high oral bioavailability
same,levels in the brain relative to plasma,[5]; oral,5 fold
